From PubChem BioAssay (NCI)
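1) Cells in 96-well plates. 2) Compound, 48 h, 5 concentrations. 3) Linear interpolation between surrounding doses. 4) Unreached endpoint = highest concentration. Definition used: TGI = concentration required for complete inhibition of growth.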

Assays:
Test in all cases: growth of human tumour cells (NCI), 48 h
UACC-62 melanoma = system: UACC-62 melanoma
NCI-H23 lung = system: NCI-H23 lung
SW-620 colon = system: SW-620 colon
LOX IMVI melanoma = system: LOX IMVI melanoma
HCT-15 colon = system: HCT-15 colon
DU-145 prostate = system: DU-145 prostate
MOLT-4 leukemia = system: MOLT-4 leukemia
EKVX NSCLC = system: EKVX NSCLC
SN12C renal = system: SN12C renal
SNB-19 CNS = system: SNB-19 CNS
OVCAR-4 ovarian = system: OVCAR-4 ovarian
KM12 colon = system: KM12 colon
U251 CNS = system: U251 CNS
BT-549 breast = system: BT-549 breast
SK-OV-3 ovarian = system: SK-OV-3 ovarian
T-47D breast = system: T-47D breast
HL-60(TB) leukemia = system: HL-60(TB) leukemia
IGROV1 ovarian = system: IGROV1 ovarian
CAKI-1 renal = system: CAKI-1 renal
HS 578T breast = system: HS 578T breast
OVCAR-8 ovarian = system: OVCAR-8 ovarian
HT29 colon = system: HT29 colon
786-0 renal = system: 786-0 renal
ACHN renal = system: ACHN renal
OVCAR-5 ovarian = system: OVCAR-5 ovarian
SR leukemia = system: SR leukemia
MDA-MB-435 = system: MDA-MB-435
RXF 393 renal = system: RXF 393 renal
A549 NSCLC = system: A549 NSCLC
SF-539 CNS = system: SF-539 CNS
COLO 205 colon = system: COLO 205 colon
SF-295 CNS = system: SF-295 CNS
HCT-116 colon = system: HCT-116 colon
HOP-92 NSCLC = system: HOP-92 NSCLC
SK-MEL-2 melanoma = system: SK-MEL-2 melanoma
SF-268 CNS = system: SF-268 CNS
OVCAR-3 ovarian = system: OVCAR-3 ovarian
UACC-257 melanoma = system: UACC-257 melanoma
M14 melanoma = system: M14 melanoma
A498 renal = system: A498 renal
SK-MEL-5 melanoma = system: SK-MEL-5 melanoma
NCI-H460 lung = system: NCI-H460 lung
NCI/ADR-RES ovarian = system: NCI/ADR-RES ovarian
MDA-N = system: MDA-N
RPMI-8226 leukemia = system: RPMI-8226 leukemia
CCRF-CEM leukemia = system: CCRF-CEM leukemia
TK-10 renal = system: TK-10 renal
MDA-MB-231 breast = system: MDA-MB-231 breast
NCI-H226 lung = system: NCI-H226 lung
K-562 leukemia = system: K-562 leukemia
SNB-75 CNS = system: SNB-75 CNS
PC-3 prostate = system: PC-3 prostate
UO-31 renal = system: UO-31 renal
NCI-H522 lung = system: NCI-H522 lung
MCF7 breast = system: MCF7 breast
HOP-62 NSCLC = system: HOP-62 NSCLC
SK-MEL-28 melanoma = system: SK-MEL-28 melanoma
HCC-2998 colon = system: HCC-2998 colon
MALME-3M melanoma = system: MALME-3M melanoma

CSc1ncc2c(n1)-c1ccccc1OC2N1CCCCC1 (stereo unspecified)
TGI (UACC-62 melanoma): > 100 µM | TGI (NCI-H23 lung): > 100 µM | TGI (SW-620 colon): > 100 µM | TGI (LOX IMVI melanoma): 46.7 µM | TGI (HCT-15 colon): 84.5 µM | TGI (DU-145 prostate): > 100 µM | TGI (MOLT-4 leukemia): 58 µM | TGI (EKVX NSCLC): > 100 µM | TGI (SN12C renal): > 100 µM | TGI (SNB-19 CNS): > 100 µM | TGI (OVCAR-4 ovarian): > 100 µM | TGI (KM12 colon): > 100 µM | TGI (U251 CNS): > 100 µM | TGI (BT-549 breast): 86.2 µM | TGI (SK-OV-3 ovarian): > 100 µM | TGI (T-47D breast): 68.2 µM | TGI (HL-60(TB) leukemia): 49 µM | TGI (IGROV1 ovarian): > 100 µM | TGI (CAKI-1 renal): 66.3 µM | TGI (HS 578T breast): 99.2 µM | TGI (OVCAR-8 ovarian): > 100 µM | TGI (HT29 colon): > 100 µM | TGI (786-0 renal): > 100 µM | TGI (ACHN renal): > 100 µM | TGI (OVCAR-5 ovarian): > 100 µM | TGI (SR leukemia): 53.2 µM | TGI (MDA-MB-435): 87.2 µM | TGI (RXF 393 renal): > 100 µM | TGI (A549 NSCLC): > 100 µM | TGI (SF-539 CNS): > 100 µM | TGI (COLO 205 colon): > 100 µM | TGI (SF-295 CNS): > 100 µM | TGI (HCT-116 colon): > 100 µM | TGI (HOP-92 NSCLC): 84.2 µM | TGI (SK-MEL-2 melanoma): 96.6 µM | TGI (SF-268 CNS): > 100 µM | TGI (OVCAR-3 ovarian): > 100 µM | TGI (UACC-257 melanoma): > 100 µM | TGI (M14 melanoma): > 100 µM | TGI (A498 renal): 49.9 µM | TGI (SK-MEL-5 melanoma): 45.8 µM | TGI (NCI-H460 lung): > 100 µM | TGI (NCI/ADR-RES ovarian): > 100 µM | TGI (MDA-N): > 100 µM | TGI (RPMI-8226 leukemia): 65.9 µM | TGI (CCRF-CEM leukemia): 49.8 µM | TGI (TK-10 renal): 73.2 µM | TGI (MDA-MB-231 breast): > 100 µM | TGI (NCI-H226 lung): > 100 µM | TGI (K-562 leukemia): > 100 µM | TGI (SNB-75 CNS): > 100 µM | TGI (PC-3 prostate): > 100 µM | TGI (UO-31 renal): > 100 µM | TGI (NCI-H522 lung): 42.3 µM | TGI (MCF7 breast): 87.6 µM

O=[N+]([O-])c1ccccc1S(=O)(=O)c1cc(O)cc2c1NCCC2
TGI (UACC-62 melanoma): 28.9 µM | TGI (NCI-H23 lung): 49 µM | TGI (SW-620 colon): 32.6 µM | TGI (LOX IMVI melanoma): 38.4 µM | TGI (HCT-15 colon): 44.4 µM | TGI (HOP-62 NSCLC): 40.3 µM | TGI (DU-145 prostate): 35.7 µM | TGI (MOLT-4 leukemia): 13.6 µM | TGI (EKVX NSCLC): 30.7 µM | TGI (SN12C renal): 41.5 µM | TGI (SNB-19 CNS): 65.6 µM | TGI (OVCAR-4 ovarian): 29.3 µM | TGI (KM12 colon): 34.3 µM | TGI (U251 CNS): 40.1 µM | TGI (BT-549 breast): 26.3 µM | TGI (SK-OV-3 ovarian): > 31.6 µM | TGI (T-47D breast): 24.1 µM | TGI (HL-60(TB) leukemia): > 23 µM | TGI (IGROV1 ovarian): 30.8 µM | TGI (CAKI-1 renal): 63.3 µM | TGI (HS 578T breast): > 86.7 µM | TGI (OVCAR-8 ovarian): 41.6 µM | TGI (HT29 colon): 40.9 µM | TGI (786-0 renal): 25.9 µM | TGI (ACHN renal): 27.4 µM | TGI (OVCAR-5 ovarian): 40 µM | TGI (SR leukemia): 5.37 µM | TGI (MDA-MB-435): 41.4 µM | TGI (RXF 393 renal): 31.7 µM | TGI (A549 NSCLC): > 85.9 µM | TGI (SF-539 CNS): 34.8 µM | TGI (COLO 205 colon): 34.3 µM | TGI (SF-295 CNS): > 59.1 µM | TGI (HCT-116 colon): 20.9 µM | TGI (HOP-92 NSCLC): 16.8 µM | TGI (SK-MEL-2 melanoma): 51.7 µM | TGI (SK-MEL-28 melanoma): 33.9 µM | TGI (SF-268 CNS): 42.6 µM | TGI (OVCAR-3 ovarian): 18.1 µM | TGI (HCC-2998 colon): 51.1 µM | TGI (UACC-257 melanoma): 26.8 µM | TGI (MALME-3M melanoma): 37.9 µM | TGI (M14 melanoma): 30.8 µM | TGI (A498 renal): 18.4 µM | TGI (SK-MEL-5 melanoma): 27.1 µM | TGI (NCI-H460 lung): 53 µM | TGI (NCI/ADR-RES ovarian): > 79.3 µM | TGI (MDA-N): 38.8 µM | TGI (CCRF-CEM leukemia): 5.6 µM | TGI (TK-10 renal): 36.7 µM | TGI (MDA-MB-231 breast): 32.4 µM | TGI (NCI-H226 lung): 62.8 µM | TGI (K-562 leukemia): 7.54 µM | TGI (SNB-75 CNS): 33.5 µM | TGI (PC-3 prostate): 28.7 µM | TGI (UO-31 renal): 29.8 µM | TGI (NCI-H522 lung): 24.5 µM | TGI (MCF7 breast): 29.8 µM

COc1cc(S(=O)(=O)Nc2nc(-c3ccc(N=Cc4cccs4)cc3)cs2)ccc1Cl
TGI (UACC-62 melanoma): 48.7 µM | TGI (NCI-H23 lung): > 100 µM | TGI (SW-620 colon): > 100 µM | TGI (LOX IMVI melanoma): > 100 µM | TGI (HCT-15 colon): > 100 µM | TGI (HOP-62 NSCLC): > 100 µM | TGI (DU-145 prostate): > 100 µM | TGI (MOLT-4 leukemia): 98.7 µM | TGI (EKVX NSCLC): > 100 µM | TGI (SN12C renal): 64.1 µM | TGI (SNB-19 CNS): > 100 µM | TGI (OVCAR-4 ovarian): > 100 µM | TGI (KM12 colon): > 100 µM | TGI (U251 CNS): > 100 µM | TGI (BT-549 breast): > 100 µM | TGI (SK-OV-3 ovarian): > 100 µM | TGI (T-47D breast): > 100 µM | TGI (HL-60(TB) leukemia): > 100 µM | TGI (IGROV1 ovarian): > 100 µM | TGI (CAKI-1 renal): > 100 µM | TGI (HS 578T breast): > 100 µM | TGI (OVCAR-8 ovarian): > 100 µM | TGI (HT29 colon): > 100 µM | TGI (786-0 renal): > 100 µM | TGI (ACHN renal): > 100 µM | TGI (OVCAR-5 ovarian): > 100 µM | TGI (SR leukemia): 57 µM | TGI (MDA-MB-435): > 100 µM | TGI (RXF 393 renal): 49.6 µM | TGI (A549 NSCLC): > 100 µM | TGI (SF-539 CNS): > 100 µM | TGI (COLO 205 colon): > 100 µM | TGI (SF-295 CNS): > 100 µM | TGI (HCT-116 colon): > 100 µM | TGI (HOP-92 NSCLC): > 100 µM | TGI (SK-MEL-2 melanoma): > 100 µM | TGI (SK-MEL-28 melanoma): > 100 µM | TGI (SF-268 CNS): > 100 µM | TGI (OVCAR-3 ovarian): 78.6 µM | TGI (HCC-2998 colon): > 100 µM | TGI (UACC-257 melanoma): > 100 µM | TGI (MALME-3M melanoma): > 100 µM | TGI (M14 melanoma): > 100 µM | TGI (A498 renal): > 100 µM | TGI (SK-MEL-5 melanoma): > 100 µM | TGI (NCI-H460 lung): > 100 µM | TGI (NCI/ADR-RES ovarian): > 100 µM | TGI (MDA-N): > 100 µM | TGI (CCRF-CEM leukemia): > 100 µM | TGI (TK-10 renal): > 100 µM | TGI (MDA-MB-231 breast): > 100 µM | TGI (NCI-H226 lung): > 100 µM | TGI (K-562 leukemia): > 100 µM | TGI (SNB-75 CNS): > 100 µM | TGI (PC-3 prostate): > 100 µM | TGI (UO-31 renal): > 100 µM | TGI (NCI-H522 lung): > 100 µM | TGI (MCF7 breast): > 100 µM
